Reference: patent publication US7199132B2, “Tropane analogs and methods for inhibition of monoamine transport” (Organix, Inc., priority 2001, dated 2007)

Key:
serotonin transporter = molecular target: T1, serotonin transporter (Macaca mulatta, UniProt Q9MYX0); assay: Serotonin transporter assay: inhibition of {3H}citalopram binding in caudate-putamen membranes; set-up: species or system rhesus or cynomolgus monkey; conditions: IC50 (nM) SERT, monkey caudate-putamen, mean of 2 or more independent experiments in triplicate
T1 construct: The serotonin transporter was assayed in caudate-putamen membranes using conditions similar to those for the dopamine transporter; from tissue; host or cells: caudate-putamen membranes of cynomolgus or rhesus monkey brain

dopamine transporter = molecular target: T2, dopamine transporter (Macaca fascicularis, UniProt Q9GJT6); assay: Dopamine transporter assay: inhibition of {3H}WIN 35,428 binding in caudate-putamen membranes; set-up: species or system rhesus or cynomolgus monkey; conditions: for SERT/DAT: selectivity ratio IC50 SERT / IC50 DAT; for IC50: IC50 (nM) DAT, inhibition of {3H}WIN 35,428 binding, monkey caudate-putamen, mean of 2 or more independent experiments in triplicate
T2 construct: The caudate-putamen was dissected from coronal slices and yielded 1.4±0.4 g tissue; Membranes were prepared as described previously; from tissue; host or cells: caudate-putamen membranes of cynomolgus or rhesus monkey brain
T2 sequence (Q9GJT6 whole entry): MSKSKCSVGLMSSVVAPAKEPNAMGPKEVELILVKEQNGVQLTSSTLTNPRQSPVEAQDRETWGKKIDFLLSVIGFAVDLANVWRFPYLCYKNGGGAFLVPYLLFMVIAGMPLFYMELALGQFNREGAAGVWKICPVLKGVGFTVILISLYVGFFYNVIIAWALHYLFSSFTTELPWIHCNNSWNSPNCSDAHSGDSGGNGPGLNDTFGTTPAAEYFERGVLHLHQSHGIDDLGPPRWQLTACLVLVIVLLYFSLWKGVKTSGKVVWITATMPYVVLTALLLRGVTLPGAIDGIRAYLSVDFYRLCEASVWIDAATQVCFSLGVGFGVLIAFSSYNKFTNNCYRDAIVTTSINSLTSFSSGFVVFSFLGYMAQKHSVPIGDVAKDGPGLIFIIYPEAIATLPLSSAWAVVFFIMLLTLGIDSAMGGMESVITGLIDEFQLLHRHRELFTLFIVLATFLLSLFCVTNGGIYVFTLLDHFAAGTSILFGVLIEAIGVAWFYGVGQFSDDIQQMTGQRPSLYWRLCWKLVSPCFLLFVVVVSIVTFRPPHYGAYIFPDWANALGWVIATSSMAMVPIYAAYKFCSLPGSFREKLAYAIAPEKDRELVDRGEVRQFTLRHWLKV

T1 sequence (Q9MYX0 whole entry): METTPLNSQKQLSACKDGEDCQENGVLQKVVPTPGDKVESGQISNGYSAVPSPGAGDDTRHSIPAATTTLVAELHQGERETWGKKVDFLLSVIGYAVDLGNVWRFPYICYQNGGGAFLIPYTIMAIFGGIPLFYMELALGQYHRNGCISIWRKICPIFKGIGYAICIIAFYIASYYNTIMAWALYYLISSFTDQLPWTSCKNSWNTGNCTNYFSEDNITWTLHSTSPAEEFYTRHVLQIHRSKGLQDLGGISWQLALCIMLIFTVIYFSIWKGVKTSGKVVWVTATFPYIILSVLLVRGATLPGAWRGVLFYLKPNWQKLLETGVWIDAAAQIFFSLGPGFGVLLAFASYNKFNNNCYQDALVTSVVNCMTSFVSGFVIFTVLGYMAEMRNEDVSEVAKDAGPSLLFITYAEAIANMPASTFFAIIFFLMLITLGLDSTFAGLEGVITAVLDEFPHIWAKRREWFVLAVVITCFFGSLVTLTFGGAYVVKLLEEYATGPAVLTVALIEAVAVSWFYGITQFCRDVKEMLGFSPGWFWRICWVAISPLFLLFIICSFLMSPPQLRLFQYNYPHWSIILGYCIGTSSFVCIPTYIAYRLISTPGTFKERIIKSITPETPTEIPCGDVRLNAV

| Structure (SMILES) | melting point | IC50 (serotonin transporter) | SERT/DAT (dopamine transporter) | IC50 (dopamine transporter) |
| --- | --- | --- | --- | --- |
| COC(=O)[C@@H]1[C@H]2[C@H](O)C[C@@H](C[C@H]1c1ccc(F)cc1)N2C (relative stereo) [Compound 18c, 2β-Carbomethoxy-3α-(4-fluorophenyl)-7β-hydroxy-8-methyl-8-azabicyclo{3.2.1}octane] | 177.2 to 179 °C | > 20000 nM | >120 |  |
| COC(=O)C1C(c2ccc(Cl)c(Cl)c2)CC2CC(O)C1N2C (racemic) [Compound 15a, 2β-Carbomethoxy-3β-(3,4-dichlorophenyl)-7β-hydroxy-8-methyl-8-azabicyclo{3.2.1}octane] | 185.5 to 186.5 °C | 27.7 nM | 20 |  |
| COC(=O)[C@@H]1[C@H]2C(=O)C[C@@H](C[C@H]1c1ccc(Cl)c(Cl)c1)N2C (relative stereo) [Compound 20, 2β-Carbomethoxy-3α-(3,4-dichlorophenyl)-8-methyl-8-azabicyclo{3.2.1}oct-7-one] | 163.5 to 164.5 °C | 7040 nM |  | 14.2 nM |
| COC(=O)C1=C(c2ccc(F)cc2)CC2C(O)CC1N2C (stereo not drawn) [Compound 7c, 2-Carbomethoxy-3-(4-fluorophenyl)-6β-hydroxy-8-methyl-8-azabicyclo{3.2.1}oct-2-ene] | 124 to 126 °C | > 20000 nM | 1 | > 20000 nM |
| COC(=O)C1=C(c2ccccc2)C[C@@H]2C[C@@H](O)[C@H]1N2C (racemic) [Compound 8d, 2-Carbomethoxy-3-phenyl-7β-hydroxy-8-methyl-8-azabicyclo{3.2.1}oct-2-ene] | 113 to 114 °C | > 10000 nM | 1 | > 10000 nM |
| CCC(=O)[C@@H]1[C@H]2[C@H](O)C[C@@H](C[C@H]1c1ccc(Cl)c(Cl)c1)N2C (relative stereo) [Compound 26, 1-{3α-(3,4-Dichlorophenyl)-7β-hydroxy-8-methyl-8-azabicyclo{3.2.1}oct-2-yl}propan-1-one] | 113.1 to 114.1 °C | 2520 nM |  | 1.1 nM |
| COC(=O)C1=C(c2ccc3ccccc3c2)CC2CC(O)C1N2C (stereo not drawn) [Compound 8b, 2-Carbomethoxy-3-(2-naphthyl)-7β-hydroxy-8-methyl-8-azabicyclo{3.2.1}oct-2-ene] | 164.2 to 165.2 °C | 677 nM | 15 |  |
| COC(=O)C1=C(c2ccc(Cl)c(Cl)c2)C[C@@H]2[C@@H](O)C[C@H]1N2C (racemic) [Compound 7a, 2-Carbomethoxy-3-(3,4-dichlorophenyl)-6β-hydroxy-8-methyl-8-azabicyclo{3.2.1}oct-2-ene] | 94 to 96 °C | 3320 nM | 60 |  |
| COC(=O)[C@@H]1[C@H]2[C@H](O)C[C@@H](C[C@@H]1c1ccc3ccccc3c1)N2C (relative stereo) [Compound 15b, 2β-Carbomethoxy-3β-(2-naphthyl)-7β-hydroxy-8-methyl-8-azabicyclo{3.2.1}octane] | 207.5 to 208.5 °C | 5.57 nM | 4 |  |
| COC(=O)C1=C(c2ccccc2)CC2C(O)CC1N2C (stereo not drawn) [Compound 7d, 2-Carbomethoxy-3-phenyl-6β-hydroxy-8-methyl-8-azabicyclo{3.2.1}oct-2-ene] | 165 to 167 °C | > 100000 nM | 1 | > 150000 nM |
| COC(=O)C1=C(c2ccc3ccccc3c2)CC2C(O)CC1N2C (stereo not drawn) [Compound 7b, 2-Carbomethoxy-3-(2-naphthyl)-6β-hydroxy-8-methyl-8-azabicyclo{3.2.1}oct-2-ene] | 165 to 167 °C | 260 nM | 1 |  |
| CCC(=O)[C@@H]1[C@H]2[C@H](O)C[C@@H](C[C@@H]1c1ccc(Cl)c(Cl)c1)N2C (relative stereo) [Compound 23, 1-{3β-(3,4-Dichlorophenyl)-7β-hydroxy-8-methyl-8-azabicyclo{3.2.1}oct-2-yl}propan-1-one] | 195.5 to 196.5 °C | 97 nM |  | 0.81 nM |
| COC(=O)[C@@H]1[C@H]2[C@H](O)C[C@@H](C[C@@H]1c1ccc(F)cc1)N2C (racemic) [Compound 15c, 2β-Carbomethoxy-3β-(4-fluorophenyl)-7β-hydroxy-8-methyl-8-azabicyclo{3.2.1}octane] | 179.3 to 181.3 °C | > 10000 nM | >80 |  |
| COC(=O)[C@H]1[C@@H](c2ccc(Cl)c(Cl)c2)C[C@@H]2[C@@H](O)C[C@H]1N2C (relative stereo) [Compound 14a, 2β-Carbomethoxy-3β-(3,4-dichlorophenyl)-6β-hydroxy-8-methyl-8-azabicyclo{3.2.1}octane] | 93.5 to 95.5 °C | 166 nM | 55 |  |
| COC(=O)[C@H]1[C@@H](c2ccc3ccccc3c2)C[C@@H]2[C@@H](O)C[C@H]1N2C (relative stereo) [Compound 14b, 2β-Carbomethoxy-3β-(2-naphthyl)-6β-hydroxy-8-methyl-8-azabicyclo{3.2.1}octane] | 84 to 86 °C | 34.2 nM | 4 |  |
